Assays:
fasting insulin = test: Fasting insulin levels in postmenopausal women, six month treatment (ELISA); type: in vivo, human; conditions: for Fasting Insulin: n = 30, mean±SEM
Description: (§1) Cardiovascular risk markers, according to various embodiments of the present invention, may comprise fasting insulin levels, fasting glucose levels, insulin resistance levels, osteoprotegerin levels, sex hormone-binding globulin levels, fibrinogen levels, estradiol levels and/or the like. […] See Crisafulli A., Altavilla D., Marini H., Bitto A., Cucinotta D., Frisina N., Corrado F., D'Anna R., Squadrito G., Adamo E., Marini R., Romeo A., Cancellieri F., Buemi M., Squadrito F., Menopause, The Journal of the North American Menopause Society, Vol. 12 No. 2 pp. 186-192.
(§2) Prior to this six month period, participants in the study were placed on a standard fat-reduced diet for four-weeks, which constituted a stabilization process.
To measure fasting insulin levels, insulin was measured by a commercially available ELISA kit according to the protocol of the manufacturer (DRG Diagnostik, Frauenberg Germany) (intraassay CV 4%; interassay CV 6%; lower detection limit, <1.5 μlU/ml).
(§3) Data was presented as mean±SEM, and the significance of the difference was assessed by analysis of variance, where a value of P less than 0.05 was considered statistically significant.

osteoprotegerin = test: Osteoprotegerin levels in postmenopausal women, six month treatment (ELISA); type: in vivo, human; conditions: for Osteoprotegerin: n = 30, mean±SEM
Description: as §1, §2
To measure osteoprotegerin levels, a commercially available ELISA kit according to the protocol of the manufacturer (Immunodiagnostik Bensheim Germany) was utilized. This assay detects monomeric, dimeric, and ligand-bound forms of OPG (intra-assay CV 5%; interassay CV 6%; lower detection limit, 0.14 pmol/l).
as §3

[1] = tested on: sex hormone-binding globulin; test: Sex hormone-binding globulin levels in postmenopausal women, six month treatment (immunoradiometric assay); type: in vivo, human; conditions: for Sex Hormone Binding Globulin: n = 30, mean±SEM
Description: as §1, §2
To measure sex hormone-binding globulin levels, an immunoradiometric assay (RADIM SPA, Rome, Italy) (intra-assay CV 4%; interassay CV 5%; lower detection limit, 2.5 nmol/L) was used.
as §3

fibrinogen = test: Fibrinogen levels in postmenopausal women, six month treatment; type: in vivo, human; conditions: for Fibrinogen: n = 30, mean±SEM
Description: as §1, §2
To measure fibrinogen levels, automated routine procedures were utilized.
as §3

C-reactive protein = test: Serum C-reactive protein in osteopenic women, six month study (immunochemiluminescent assay); type: in vivo, human
Description: Inflammatory markers, according to various representative embodiments of the present invention, may comprise G-reactive proteins and/or homocysteine and/or the like. […] Prior to the six month period, participants in the study were placed on a standard fat-reduced diet for four-weeks, which constituted a stabilization process. The participants were then randomly assigned to receive either genistein, HRT or a placebo. Throughout the study period, samples were obtained while participants were fasting to minimize dietary effects. The samples were used to measure serum C-reactive protein and plasma homocysteine.
Serum C-reactive protein was measured using an immunochemiluminescent assay (Immulite DPC, Los Angeles, Calif., USA). Samples were stored after separation at −80° C. until assayed. Sensitivity was 0.07 μg/ml with intra- and interassay coefficient of variations of 3.1 and 5.7%, respectively. The reference interval was 0.20-5.10 μg/ml.
(§4) For statistical evaluation of the serum C-reactive protein and homocysteine, a two-way ANOVA with Bonferroni post-test was performed.

estradiol = test: Estradiol levels in postmenopausal women, six month treatment (HPLC-UV); type: in vivo, human; conditions: for Estradiol: baseline, prior to six month treatment, n = 30
Description: as §1, §2
(§5) The assay was performed by using an HPLC method with UV detection.
as §3

homocysteine = test: Plasma homocysteine in osteopenic women, six month study (immunochemiluminescent assay); type: in vivo, human
Description: Inflammatory markers, according to various representative embodiments of the present invention, may comprise G-reactive proteins and/or homocysteine and/or the like. […] Prior to the six month period, participants in the study were placed on a standard fat-reduced diet for four-weeks, which constituted a stabilization process. […] Throughout the study period, samples were obtained while participants were fasting to minimize dietary effects. The samples were used to measure serum C-reactive protein and plasma homocysteine.
Plasma homocysteine was measured using an immunochemiluminescent assay (Immulite DPC, Los Angeles, Calif., USA). Samples were stored after separation at −80° C. until assayed. Homocysteine was assayed on plasma samples after treatment with S-adenosyl-L-homocysteine (SAH) hydrolase and dithiothreitol (DTT) solution. EDTA plasma was separated from the cells as soon as possible after collection. Samples were stored on ice between the time of sampling and centrifugation.
as §4

fasting glucose = test: Fasting glucose levels in postmenopausal women, six month treatment (enzymatic kit); type: in vivo, human; conditions: for Fasting Glucose: n = 30, mean±SEM
Description: as §1, §2
To measure fasting glucose levels, serum glucose was measured by an enzymatic kit (BioSystemSA, Barcelona, Spain), (intra-assay CV 1%; interassay CV 1.8%; lower detection limit, 0.0126 mmol/L). Glucose in the sample produces, by means of the coupled reactions, a colored complex that can be spectrophotometrically measured.
as §3

[2] = Plasma genistein levels in postmenopausal women, six month treatment (HPLC-UV); type: in vivo, human; conditions: for Plasma Genistein: baseline, prior to six month treatment, n = 30
Description: as §1, §2, §5, §3

insulin resistance = test: Insulin resistance (HOMA-IR) in postmenopausal women, six month treatment; type: in vivo, human; conditions: for Insulin resistance: HOMA-IR, n = 30, mean±SEM
Description: as §1, §2
To measure insulin resistance levels, insulin was measured by a commercially available ELISA kit according to the protocol of the manufacturer (DRG Diagnostik, Frauenberg Germany) (intraassay CV 4%; interassay CV 6%; lower detection limit, <1.5 μlU/ml). Serum glucose was measured by an enzymatic kit (BioSystemSA, Barcelona, Spain), (intra-assay CV 1%; interassay CV 1.8%; lower detection limit, 0.0126 mmol/l). Glucose in the sample produces, by means of the coupled reactions, a colored complex that can be spectrophotometrically measured. Insulin resistance was calculated using the Homeostasis Model Assessment method (HOMA-IR=(insulin×glucose)/22.5).
as §3

estrogen receptor ERβ = estrogen receptor ERβ (Homo sapiens, UniProt Q92731); conditions: competition assays, literature (Morito et al. 2001); cited from earlier work
estrogen receptor ERα = target: T1, estrogen receptor ERα (Homo sapiens, UniProt P03372); conditions: competition assays, literature (Morito et al. 2001); cited from earlier work
T1 sequence (P03372 1-595): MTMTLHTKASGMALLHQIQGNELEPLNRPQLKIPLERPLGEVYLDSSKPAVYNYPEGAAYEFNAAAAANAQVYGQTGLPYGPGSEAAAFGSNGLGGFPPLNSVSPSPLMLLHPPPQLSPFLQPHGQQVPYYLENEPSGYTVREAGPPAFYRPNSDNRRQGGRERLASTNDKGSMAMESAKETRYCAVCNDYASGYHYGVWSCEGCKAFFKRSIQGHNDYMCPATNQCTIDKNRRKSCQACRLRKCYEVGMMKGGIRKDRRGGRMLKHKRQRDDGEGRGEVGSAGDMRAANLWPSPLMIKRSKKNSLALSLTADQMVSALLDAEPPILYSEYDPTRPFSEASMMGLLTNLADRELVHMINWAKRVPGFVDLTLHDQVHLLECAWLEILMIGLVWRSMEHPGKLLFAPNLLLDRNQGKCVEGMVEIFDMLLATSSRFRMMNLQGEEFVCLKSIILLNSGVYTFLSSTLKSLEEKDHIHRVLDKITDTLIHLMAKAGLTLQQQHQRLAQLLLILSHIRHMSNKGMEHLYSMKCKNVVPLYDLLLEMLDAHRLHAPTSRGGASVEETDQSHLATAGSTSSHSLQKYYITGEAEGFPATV

[3] = after six months, genistein 54 mg/d
[4] = baseline, prior to six month treatment
[5] = after six months, genistein 54 mg/d, listed as genistein
[6] = baseline to six months, not taking uncertainties into account
[7] = baseline, prior to six month treatment, listed as genistein
[8] = osteopenic women, after six months, genistein 54 mg/day or HRT, mean ± SE
[9] = osteopenic women, before treatment (baseline), n = 30, mean ± SE

estrogen receptor ERβ, sequence (Q92731 whole entry): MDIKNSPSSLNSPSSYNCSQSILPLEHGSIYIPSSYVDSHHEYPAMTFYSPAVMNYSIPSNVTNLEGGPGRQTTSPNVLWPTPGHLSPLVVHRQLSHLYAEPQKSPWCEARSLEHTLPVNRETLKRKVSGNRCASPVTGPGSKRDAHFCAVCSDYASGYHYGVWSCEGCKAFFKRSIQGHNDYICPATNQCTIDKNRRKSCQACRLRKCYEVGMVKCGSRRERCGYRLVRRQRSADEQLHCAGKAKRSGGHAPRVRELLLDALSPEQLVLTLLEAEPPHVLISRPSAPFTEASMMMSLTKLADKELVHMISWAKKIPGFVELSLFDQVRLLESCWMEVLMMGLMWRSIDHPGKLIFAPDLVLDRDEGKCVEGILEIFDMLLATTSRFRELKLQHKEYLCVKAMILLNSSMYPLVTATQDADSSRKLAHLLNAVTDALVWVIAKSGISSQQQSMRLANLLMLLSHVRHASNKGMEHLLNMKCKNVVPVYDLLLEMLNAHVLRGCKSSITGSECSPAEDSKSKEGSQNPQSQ

In the case of `O=c1c(-c2ccc(O)cc2)coc2cc(O)cc(O)c12` [Genistein, 4′,5,7-Trihydroxyisoflavone 5,7-Dihydroxy-3-(4-hydroxyphenyl)-4H-1-benzopyran-4-one], the “Decrease of fasting insulin levels” value (fasting insulin; after six months, FIG. 6) is reported as −12±3.33%, the “Fasting Insulin” value (fasting insulin; [3]) is reported as 6.24 ± 0.45 and the “Fasting Insulin” value (fasting insulin; [4]) is reported as 7 ± 0.55. For the same compound, the “Decrease of osteoprotegerin levels” value (osteoprotegerin; after six months, FIG. 8) was −2±0.3%, the Osteoprotegerin (osteoprotegerin; [3]) was 4.4 ± 0.11 and the Osteoprotegerin (osteoprotegerin; [4]) was 4.67 ± 0.13. For the same compound, the “Sex Hormone Binding Globulin” value [1, 3] was 63 ± 3.83 nmol/L, the “Sex Hormone Binding Globulin” value [1, 5] was 63 ± 3.83 nmol/L and the “Decrease of sex hormone binding globulin levels” value [1, 6] was roughly 11.3%. For the same compound, the “Sex Hormone Binding Globulin” value [1, 4] was 71 ± 4.2 nmol/L, the “Sex Hormone Binding Globulin” value [1, 7] was 71 ± 4.2 nmol/L and the Fibrinogen (fibrinogen; [3]) was 3.18 ± 0.12 g/L. For the same compound, the Fibrinogen (fibrinogen; [5]) was 3.18 ± 0.12 g/L, the “Decrease of fibrinogen levels” value (fibrinogen; [6]) was roughly 11.7% and the Fibrinogen (fibrinogen; [4]) was 3.6 ± 0.12 g/L. For the same compound, the Fibrinogen (fibrinogen; [7]) was 3.6 ± 0.12 g/L, the “C-reactive protein level, change from baseline” value (C-reactive protein; after 6 months of treatment) was “no significant differences at the end of treatment from baseline” and the “Serum C-reactive protein (CRP), After” value (C-reactive protein; [8]) was 2.13 ± 0.45 mg/L. For the same compound, the “Serum C-reactive protein (CRP), Before” value (C-reactive protein; [9]) was 1.73 ± 0.31 mg/L, the “Estradiol levels, six month readings” value (estradiol; after 6 months, genistein 54 mg/d, FIG. 4A) was “approximately 78 pmol/L” and the Estradiol (estradiol) was 73 ± 2.19 pmol/L. The Estradiol (estradiol; listed as genistein) was “approximately 74 pmol/L”, the “Effect on estradiol levels” value (estradiol; given over a six month period, FIG. 4A) was “does not significantly elevate estradiol levels” and the “Plasma homocysteine mean value, change from baseline” value (homocysteine; after six months, difference not statistically significant (P>0.05)) was “slightly decreased from baseline”. The “Plasma homocysteine, After” value (homocysteine; [8]) was 10.72 ± 0.46 µmol/L, the “Plasma homocysteine, Before” value (homocysteine; [9]) was 11.36 ± 0.39 µmol/L and the “Decrease in levels of fasting glucose” value (fasting glucose; after six months of treatment, P<0.001 as compared to placebo, FIG. 5) was 8.7±2.3%. For the same compound, the “Fasting Glucose” value (fasting glucose; [3]) was 4.3 ± 0.10, the “Fasting Glucose” value (fasting glucose; [4]) was 4.74 ± 0.11 and the “Increase in plasma genistein levels after 6 months of treatment” value ([2]; 6 months vs baseline) was “approximately 60%”. For the same compound, the “Plasma Genistein” value [2] was 0.07 ± 0.004 µmol/L, the “Plasma Genistein” value ([2]; listed as genistein) was “approximately 0.75 μmol/l” and the concentration at 6 months ([2]; female, human, in vivo, 54 mg/d) was roughly 1.2 µM. The “Decrease of insulin resistance levels” value (insulin resistance; after six months, FIG. 7) was −14±5.8%, the Insulin resistance (insulin resistance; [3]) was 1.18 ± 0.08 and the Insulin resistance (insulin resistance; [4]) was 1.47 ± 0.12.

For `O=C1c2c(O)cc(O)cc2OCC1c1ccc(O)cc1` (stereo not shown) [dihydrogenistein], the “Binding to estrogen receptor ERβ” value (estrogen receptor ERβ) is given as “binding similar to the isoflavones, but lower than genistein” and the “Binding to estrogen receptor ERα” value (estrogen receptor ERα) is given as “binding similar to the isoflavones, but lower than genistein”.

In the case of `Oc1ccc([C@H]2COc3cc(O)ccc3C2)cc1` [equol], the “Binding to estrogen receptor ERβ” value (estrogen receptor ERβ) is listed as “binding similar to the isoflavones, but lower than genistein” and the “Binding to estrogen receptor ERα” value (estrogen receptor ERα) is listed as “binding similar to the isoflavones, but lower than genistein”.
